Article PMC11736000, “Structural and functional analysis of a bile salt hydrolase from the bison microbiome” (The Journal of Biological Chemistry, 2024)

Biological target: T1, bile salt hydrolase from Arthrobacter citreus EINP1 (BSHAc) (Arthrobacter citreus, UniProt A0ABZ2ZT44)
T1 construct: gene bsh; C-terminally hexahistidine-tagged recombinant BSHAc; NCBI WP_342023006.1
Test: […] Å crystal structure of the covalent complex; time-dependent inactivation kinetics of the purified enzyme (kinact/KI […] ^-1s^-1)
Assay type: biochemical

T1 sequence (A0ABZ2ZT44 entry or part of it): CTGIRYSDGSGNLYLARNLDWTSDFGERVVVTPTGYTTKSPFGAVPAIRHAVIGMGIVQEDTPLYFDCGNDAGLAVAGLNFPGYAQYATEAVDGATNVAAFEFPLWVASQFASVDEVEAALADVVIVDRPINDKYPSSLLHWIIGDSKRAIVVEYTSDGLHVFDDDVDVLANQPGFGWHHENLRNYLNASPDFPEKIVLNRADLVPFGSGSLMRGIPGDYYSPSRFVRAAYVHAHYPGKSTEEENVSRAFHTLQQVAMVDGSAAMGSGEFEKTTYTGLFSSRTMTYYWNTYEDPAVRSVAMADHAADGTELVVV

Question: `C[C@H](CCC(=O)CF)[C@H]1CC[C@H]2[C@@H]3CC[C@@H]4C[C@H](OS(=O)(=O)O)CC[C@]4(C)[C@H]3CC[C@]12C` [AAA-10] was tested. Which KI (inactivation) did it give?
Answer: 23 µM
